Laboratory results from patent US20250145633A1, “SUBSTITUTED FURANOPYRIMIDINE COMPOUNDS AS PDE1 INHIBITORS” (Dart NeuroScience, LLC, priority 2017, published 2025).
Where two headings read alike, the source gives them in different places.

Target: human PDE1B enzyme (Homo sapiens (Human), UniProt Q01064)
Experiment: IMAP TR-FRET PDE1B enzymatic assay
Format: biochemical
Summary of the method: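 Full-length GST-tagged human PDE1B (250 pg/well) in IMAP BSA buffer with 10 U/ml calmodulin and 2.5 mM CaCl2; compound pre-incubated 5 min at room temperature, then 200 nM (final) FAM-cAMP for 30 min. IMAP binding reagent/Tb added, 1 h; TR-FRET 520/490 ratio read. IC50 from sigmoidal dose-response fit.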

[1] = negative log of half-maximal molar inhibitory concentration, 200 nM FAM-cAMP, values given as bins, read-out: PDE1b (pIC50) (converted)
[2] = negative log of half-maximal molar inhibitory concentration, 200 nM FAM-cAMP, values given as bins

| SMILES | IC50 [1] | also measured |
| --- | --- | --- |
| Cc1oc2ncnc(NC3(C)CC3)c2c1C(=O)N(C)Cc1cc(C2CC2)[nH]n1 [Example 265, N-[(5-Cyclopropyl-1H-pyrazol-3-yl)methyl]-N,6-dimethyl-4-[(1-methylcyclopropyl)amino]furo[2,3-d]pyrimidine-5-carboxamide] | 10 to 100 nM | – |
| Cc1oc2ncnc(NC3(C)CC3)c2c1C(=O)NCc1ccc(OC(F)F)cc1 [Example 267, N-{[4-(Difluoromethoxy)phenyl]methyl}-6-methyl-4-[(1-methylcyclopropyl)amino]furo[2,3-d]pyrimidine-5-carboxamide] | – | PDE1b (pIC50) [2]: >8 |
| Cc1oc2ncnc(NC3(C)CC3)c2c1C(=O)N1CCn2ccnc2C1 [Example 269, 5-{5H,6H,7H,8H-Imidazo[1,2-a]pyrazine-7-carbonyl}-6-methyl-N-(1-methylcyclopropyl)furo[2,3-d]pyrimidin-4-amine] | 10 to 100 nM | – |
| Cc1oc2ncnc(NC3(C)CC3)c2c1C(=O)NC12CC3CC(CC(C3)C1)C2 [Example 270, N-(Adamantan-1-yl)-6-methyl-4-[(1-methylcyclopropyl)amino]furo[2,3-d]pyrimidine-5-carboxamide] | < 10 nM | – |
| Cc1oc2ncnc(NC3(C)CC3)c2c1C(=O)N1CCc2sccc2C1 [Example 273, 6-Methyl-N-(1-methylcyclopropyl)-5-{4H,5H,6H,7H-thieno[3,2-c]pyridine-5-carbonyl}furo[2,3-d]pyrimidin-4-amine] | 10 to 100 nM | – |
| Cc1oc2ncnc(NC3(C)CC3)c2c1C(=O)N1CCC(C#N)(c2ccccc2)CC1 [Example 274, 1-{6-Methyl-4-[(1-methylcyclopropyl)amino]furo[2,3-d]pyrimidine-5-carbonyl}-4-phenylpiperidine-4-carbonitrile] | – | IC50: 10 to 100 nM |
| CCOCC1(CNC(=O)c2c(C)oc3ncnc(NC4(C)CC4)c23)CC1 [Example 275, N-{[1-(Ethoxymethyl)cyclopropyl]methyl}-6-methyl-4-[(1-methylcyclopropyl)amino]furo[2,3-d]pyrimidine-5-carboxamide] | 10 to 100 nM | – |
| Cc1oc2ncnc(NC3(C)CC3)c2c1C(=O)N1CC2C(C1)C2(C)C (stereo not drawn) [Example 278, 5-{6,6-Dimethyl-3-azabicyclo[3.1.0]hexane-3-carbonyl}-6-methyl-(1-methylcyclopropyl)furo[2,3-d]pyrimidin-4-amine] | 10 to 100 nM | – |
| Cc1oc2ncnc(NC3(C)CC3)c2c1C(=O)N1C[C@@H]2[C@H](C1)[C@H]2c1ccc(F)cc1 [Example 279, 5-[(1R,5S,6S)-6-(4-Fluorophenyl)-3-azabicyclo[3.1.0]hexane-3-carbonyl]-6-methyl-N-(1-methylcyclopropyl)furo[2,3-d]pyrimidin-4-amine] | 10 to 100 nM | – |
| Cc1oc2ncnc(NC3(C)CC3)c2c1C(=O)NCc1cccc(F)n1 [Example 280, N-[(6-Fluoropyridin-2-yl)methyl]-6-methyl-4-[(1-methylcyclopropyl)amino]furo[2,3-d]pyrimidine-5-carboxamide] | 10 to 100 nM | – |
| Cc1oc2ncnc(NC3(C)CC3)c2c1C(=O)NC1(c2ccc(F)cn2)CC1 [Example 281, N-[1-(5-Fluoropyridin-2-yl)cyclopropyl]-6-methyl-4-[(1-methylcyclopropyl)amino]furo[2,3-d]pyrimidine-5-carboxamide] | 10 to 100 nM | – |
| Cc1oc2ncnc(NC3(C)CC3)c2c1C(=O)N1CCN(c2ccc(F)nc2)CC1 [Example 282, 5-[4-(6-Fluoropyridin-3-yl)piperazine-1-carbonyl]-6-methyl-N-(1-methylcyclopropyl)furo[2,3-d]pyrimidin-4-amine] | 10 to 100 nM | – |
| Cc1cc2c(cn1)CCN(C(=O)c1c(C)oc3ncnc(NC4(C)CC4)c13)C2 [Example 283, 6-Methyl-5-(7-methyl-1,2,3,4-tetrahydro-2,6-naphthyridine-2-carbonyl)-N-(1-methylcyclopropyl)furo[2,3-d]pyrimidin-4-amine] | 10 to 100 nM | – |
| Cc1ccc2c(n1)CCN(C(=O)c1c(C)oc3ncnc(NC4(C)CC4)c13)C2 [Example 284, 6-Methyl-5-(2-methyl-5,6,7,8-tetrahydro-1,6-naphthyridine-6-carbonyl)-N-(1-methylcyclopropyl)furo[2,3-d]pyrimidin-4-amine] | 10 to 100 nM | – |
| Cc1oc2ncnc(NC3(C)CC3)c2c1C(=O)N1CCc2c(ccnc2Cl)C1 [Example 285, 5-(5-Chloro-1,2,3,4-tetrahydro-2,6-naphthyridine-2-carbonyl)-6-methyl-N-(1-methylcyclopropyl)furo[2,3-d]pyrimidin-4-amine] | 10 to 100 nM | – |
| Cc1oc2ncnc(NC3(C)CC3)c2c1C(=O)N1CCc2ccc(Cl)nc2C1 [Example 286, 5-(2-Chloro-5,6,7,8-tetrahydro-1,7-naphthyridine-7-carbonyl)-6-methyl-N-(1-methylcyclopropyl)furo[2,3-d]pyrimidin-4-amine] | 10 to 100 nM | – |
| Cc1oc2ncnc(NC3(C)CC3)c2c1C(=O)N1CCc2nc(Cl)ccc2C1 [Example 287, 5-(2-Chloro-5,6,7,8-tetrahydro-1,6-naphthyridine-6-carbonyl)-6-methyl-N-(1-methylcyclopropyl)furo[2,3-d]pyrimidin-4-amine] | 10 to 100 nM | – |

| SMILES | IC50 [1] | also measured |
| --- | --- | --- |
| Cc1oc2ncnc(NC3(C)CC3)c2c1C(=O)N1CCc2nnc(Cl)cc2C1 [Example 288, 5-{3-Chloro-5H,6H,7H,8H-pyrido[4,3-c]pyridazine-6-carbonyl}-6-methyl-N-(1-methylcyclopropyl)furo[2,3-d]pyrimidin-4-amine] | 100 to 1000 nM | – |
| Cc1oc2ncnc(NC3(C)CC3)c2c1C(=O)N1CCc2nc(Cl)ncc2C1 [Example 289, 5-{2-Chloro-5H,6H,7H,8H-pyrido[4,3-d]pyrimidine-6-carbonyl}-6-methyl-N-(1-methylcyclopropyl)furo[2,3-d]pyrimidin-4-amine] | 10 to 100 nM | – |
| Cc1oc2ncnc(NC3(C)CC3)c2c1C(=O)N1CCc2nc(C3CCOCC3)ccc2C1 [Example 290, 6-Methyl-N-(1-methylcyclopropyl)-5-[2-(oxan-4-yl)-5,6,7,8-tetrahydro-1,6-naphthyridine-6-carbonyl]furo[2,3-d]pyrimidin-4-amine] | 10 to 100 nM | – |
| Cc1oc2ncnc(NC3(C)CC3)c2c1C(=O)NCc1cccnc1F [Example 291, N-[(2-Fluoropyridin-3-yl)methyl]-6-methyl-4-[(1-methylcyclopropyl)amino]furo[2,3-d]pyrimidine-5-carboxamide] | 10 to 100 nM | – |
| Cc1oc2ncnc(NC3(C)CC3)c2c1C(=O)NCc1ncc(F)cn1 [Example 292, N-[(5-Fluoropyrimidin-2-yl)methyl]-6-methyl-4-[(1-methylcyclopropyl)amino]furo[2,3-d]pyrimidine-5-carboxamide] | 10 to 100 nM | – |
| Cc1oc2ncnc(NC3(C)CC3)c2c1C(=O)NCc1ccc(F)nc1 [Example 293, N-[(6-Fluoropyridin-3-yl)methyl]-6-methyl-4-[(1-methylcyclopropyl)amino]furo[2,3-d]pyrimidine-5-carboxamide] | 10 to 100 nM | – |
| Cc1oc2ncnc(NC3(C)CC3)c2c1C(=O)N1CCc2cnc(C(C)C)nc2C1 [Example 294, 6-Methyl-N-(1-methylcyclopropyl)-5-[2-(propan-2-yl)-5H,6H,7H,8H-pyrido[3,4-d]pyrimidine-7-carbonyl]furo[2,3-d]pyrimidin-4-amine] | 10 to 100 nM | – |
| Cc1oc2ncnc(NC3(C)CC3)c2c1C(=O)N1CCCCC(c2ccc(F)cc2)C1 (stereo not drawn) [Example 295, 5-[3-(4-Fluorophenyl)azepane-1-carbonyl]-6-methyl-N-(1-methylcyclopropyl)furo[2,3-d]pyrimidin-4-amine] | 10 to 100 nM | – |
| Cc1oc2ncnc(NC3(C)CC3)c2c1C(=O)N1CCCC(c2ccc(F)cc2)CC1 (stereo not drawn) [Example 296, 5-[4-(4-Fluorophenyl)azepane-1-carbonyl]-6-methyl-N-(1-methylcyclopropyl)furo[2,3-d]pyrimidin-4-amine] | – | PDE1b (pIC50) [2]: >8 |
| Cc1oc2ncnc(NC3(C)CC3)c2c1C(=O)NC1(CCO)CC1 [Example 297, N-[1-(2-Hydroxyethyl)cyclopropyl]-6-methyl-4-[(1-methylcyclopropyl)amino]furo[2,3-d]pyrimidine-5-carboxamide] | 10 to 100 nM | – |
| COc1ccc(C2(NC(=O)c3c(C)oc4ncnc(NC5(C)CC5)c34)CC2)cc1F [Example 298, N-[1-(3-Fluoro-4-methoxyphenyl)cyclopropyl]-6-methyl-4-[(1-methylcyclopropyl)amino]furo[2,3-d]pyrimidine-5-carboxamide] | – | PDE1b (pIC50) [2]: >8 |
| Cc1oc2ncnc(NC3(C)CC3)c2c1C(=O)N1CCc2cnc(C3CC3)nc2C1 [Example 299, 5-{2-Cyclopropyl-5H,6H,7H,8H-pyrido[3,4-d]pyrimidine-7-carbonyl}-6-methyl-N-(1-methylcyclopropyl)furo[2,3-d]pyrimidin-4-amine] | 10 to 100 nM | – |
| Cc1oc2ncnc(NC3(C)CC3)c2c1C(=O)NC1(C2CCOCC2)CC1 [Example 300, 6-Methyl-4-[(1-methylcyclopropyl)amino]-N-[1-(oxan-4-yl)cyclopropyl]furo[2,3-d]pyrimidine-5-carboxamide] | 10 to 100 nM | – |
| Cc1oc2ncnc(NC3(C)CC3)c2c1C(=O)N1CCC(c2ccccn2)CC1 [Example 301, 6-Methyl-N-(1-methylcyclopropyl)-5-[4-(pyridin-2-yl)piperidine-1-carbonyl]furo[2,3-d]pyrimidin-4-amine] | – | PDE1b (pIC50) [2]: >8 |
| Cc1oc2ncnc(NC3(C)CC3)c2c1C(=O)NC(C)c1ncc(F)cn1 (stereo not drawn) [Example 302, N-[1-(5-Fluoropyrimidin-2-yl)ethyl]-6-methyl-4-[(1-methylcyclopropyl)amino]furo[2,3-d]pyrimidine-5-carboxamide] | 10 to 100 nM | – |
| Cc1oc2ncnc(NC3(C)CC3)c2c1C(=O)N1CCc2nc(F)ncc2C1 [Example 303, 5-{2-Fluoro-5H,6H,7H,8H-pyrido[4,3-d]pyrimidine-6-carbonyl}-6-methyl-N-(1-methylcyclopropyl)furo[2,3-d]pyrimidin-4-amine] | 100 to 1000 nM | – |
